Patent US5854241A, “Pyrido[3,2,1-I,J][3,1]benzoxazine derivatives” (Bayer Aktiengesellschaft, priority 1994, dated 1998)
Converted amounts (≈) assume the structure as drawn. Like-named read-outs stand apart in the source and are kept apart here.

Experiments:
Assay type in all cases: cell-based
Staphylococcus aureus = test: MIC by serial agar dilution, Staphylococcus aureus; conditions: 20 h, Iso-Sensitest agar, 37° C., approx. 20 hours
Method: (§1) The minimum inhibitory concentrations (MICs) were determined by serial dilution methods using Iso-Sensitest agar (Oxoid). For each test substance, a series of agar plates was prepared whose active compound concentrations decreased as the dilution was doubled. The agar plates were inoculated using a multipoint inoculator (Denley). The cultures used for inoculation were overnight cultures of the pathogen which had previously been diluted to such an extent that each inoculation point contained approximately 10^4 colony-forming units. The inoculated agar plates were incubated at 37° C., and the microbial growth was read off after approximately 20 hours.
(§2) The following table lists the MIC values of some of the compounds according to the invention in comparison with 9-fluoro-3-methyl-10-(4-methyl-1-piperazinyl)-7-oxo-1H,3H,7H-pyrido[3,2,1- i,j]-[3,1]-benzoxazine-6-carboxylic acid (EP-O 373 531) as reference compound.

Klebsiella pneumoniae = test: MIC by serial agar dilution, Klebsiella pneumoniae; conditions: Klebsiella pneumoniae strain 2363 Ge; Iso-Sensitest agar, 37° C., approx. 20 hours
Method: as §1, §2

Enterobacter = test: MIC by serial agar dilution, Enterobacter; conditions: Enterobacter strain 0,4 Ge 02-33; Iso-Sensitest agar, 37° C., approx. 20 hours
Method: as §1, §2

Salmonella = test: MIC by serial agar dilution, Salmonella; conditions: Salmonella strain 1 Fr; Iso-Sensitest agar, 37° C., approx. 20 hours
Method: as §1, §2

E. coli = test: MIC by serial agar dilution, E. coli; conditions: Escherichia coli, 20 h, Iso-Sensitest agar, 37° C., approx. 20 hours
Method: as §1, §2

Pseudomonas = test: MIC by serial agar dilution, Pseudomonas; conditions: Pseudomonas strain BS 698 TGD; Iso-Sensitest agar, 37° C., approx. 20 hours
Method: as §1, §2

[1] = Staphylococcus aureus strain 3781 Ge
[2] = Staphylococcus aureus strain Z 2 Lit
[3] = E. coli strain Z 431 Lit, read-out: MIC

| Structure (SMILES) | MIC (Staphylococcus aureus; [1]) [µg/mL] | MIC (Staphylococcus aureus; [2]) [µg/mL] | MIC (Klebsiella pneumoniae) [µg/mL] | MIC (Enterobacter) [µg/mL] | MIC (Salmonella) [µg/mL] | MIC (E. coli; E. coli strain 21 Bui) [µg/mL] | MIC (E. coli; [3]) [µg/mL] | MIC (Pseudomonas) [µg/mL] | MIC (E. coli; E. coli strain Z 431 Lit) [µg/mL] |
| --- | --- | --- | --- | --- | --- | --- | --- | --- | --- |
| CC1OCc2c(N3CC4CCCNC4C3)c(F)cc3c(=O)c(C(=O)O)cn1c23 (centres unmarked) [Example 4, 10-(2.8-Diazabicyclo[4,3,0]nonan-8-yl)-9-fluoro-3-methyl-7-oxo-1H,3H,7H-pyr ido-[3,2,1-i,j][3,1]benzoxazine-6-carboxylic acid] | 8 (≈ 20.6 µM) | 0.5 (≈ 1.29 µM) | 0.12 (≈ 0.31 µM) | 0.12 (≈ 0.31 µM) | 0.25 (≈ 0.645 µM) | 4 (≈ 10.3 µM) | 0.06 (≈ 0.155 µM) | 8 (≈ 20.6 µM) | – |
| CC1OCc2c(N3CCN(C)CC3)c(F)cc3c(=O)c(C(=O)O)cn1c23 (centres unmarked) [Reference, 9-fluoro-3-methyl-10-(4-methyl-1-piperazinyl)-7-oxo-1H,3H,7H-pyrido[3,2,1-i,j]-[3,1]-benzoxazine-6-carboxylic acid, reference compound] | 128 (≈ 354 µM) | 16 (≈ 44.3 µM) | 0.5 (≈ 1.38 µM) | 1 (≈ 2.77 µM) | 1 (≈ 2.77 µM) | 0.05 (≈ 0.138 µM) | – | 64 (≈ 177 µM) | 0.05 (≈ 0.138 µM) |
| CC1OCc2c(N3CC4CC=CC(N)C4C3)c(F)cc3c(=O)c(C(=O)O)cn1c23 (centres unmarked) [Example 1, 10-(2-Amino-8-azabicyclo[4,3,0]non-3-en-8-yl)-9-fluoro-3-methyl-7-oxo-1H,3H ,7H-pyrido-[3,2,1-i,j][3,1]benzoxazine6-carboxylic acid] | 0.12 (≈ 0.3 µM) | 0.12 (≈ 0.3 µM) | 0.06 (≈ 0.15 µM) | 0.25 (≈ 0.626 µM) | 0.06 (≈ 0.15 µM) | 4 (≈ 10 µM) | 0.015 (≈ 0.0376 µM) | 4 (≈ 10 µM) | – |
| CNC1C=CCC2CN(c3c(F)cc4c(=O)c(C(=O)O)cn5c4c3COC5C)CC21 (centres unmarked) [Example 5, 9-Fluoro-3-methyl-10-(2-methylamino-8-azabicyclo[4.3.0]non-3-en-8-yl)-7-oxo-1H,3H,7H-pyrido [3,2,1-i,j][3,]benzoxazine-6-carboxylic acid] | 0.12 (≈ 0.29 µM) | 0.12 (≈ 0.29 µM) | 0.12 (≈ 0.29 µM) | 0.12 (≈ 0.29 µM) | 0.12 (≈ 0.29 µM) | 4 (≈ 9.67 µM) | ≤ 0.015 | 16 (≈ 38.7 µM) | – |
